In brackets after ≈: the same amount, converted by molar mass. Some results are limits rather than exact numbers.

The subject of this experiment is M. catarrhalis A894. In words: MIC determination by microdilution in cation-adjusted Mueller-Hinton Broth. In kind it is cell-based. The settings on record: Moraxella catarrhalis, microdilution method, CLSI M7-A7. On the procedure:
Minimal inhibitory concentrations (MICs; mg/l) were determined in cation-adjusted Mueller-Hinton Broth by a microdilution method following the description given in “Methods for Dilution Antimicrobial Susceptibility Tests for Bacteria that Grow Aerobically”, Approved standard, 7th ed., Clinical and Laboratory Standards Institute (CLSI) Document M7-A7, Wayne, Pa., USA, 2006. All Example compounds were tested against several Gram positive and Gram negative bacteria such as S. aureus, E. faecalis, S. pneumoniae, M catarrhalis, A. baumanii, E.coli or P. aeruginosa.
For orientation: MIC means the smallest concentration in the dilution series that meets the test's criterion for growth inhibition. High values mean weaker potency, low ones greater potency. In turn, `COc1ccc2ccc(=O)n(CC3(O)CCN(C[C@@H]4CN(c5ccc6c(c5)NC(=O)CS6)C(=O)O4)C3)c2c1` (mixture of isomers) [Example 18, 6-{(R)-5-[(RS)-3-hydroxy-3-(7-methoxy-2-oxo-2H-quinolin-1-ylmethyl)pyrrolidin-1-ylmethyl]-2-oxo-oxazolidin-3-yl}-4H-benzo[1,4]thiazin-3-one] returned a minimal inhibitory concentration (MIC) of no more than 0.031 mg/L.

Take `COc1ccc2ccc(=O)n(CC3(O)CCN(C[C@H]4CN(c5ccc6c(c5)NC(=O)CS6)C(=O)O4)C3)c2c1` (mixture of isomers) [Example 19, 6-{(S)-5-[(RS)-3-hydroxy-3-(7-methoxy-2-oxo-2H-quinolin-1-ylmethyl)pyrrolidin-1-ylmethyl]-2-oxo-oxazolidin-3-yl}-4H-benzo[1,4]thiazin-3-one]: the minimal inhibitory concentration (MIC) was no more than 0.031 mg/L. The value for `COc1ccc2ccc(=O)n(CC3(O)CCN(CC[C@H]4CN(c5ccc6c(c5)NC(=O)CS6)C(=O)O4)C3)c2c1` (mixture of isomers) [Example 20, 6-((S)-5-{2-[(RS)-3-hydroxy-3-(7-methoxy-2-oxo-2H-quinolin-1-ylmethyl)-pyrrolidin-1-yl]-ethyl}-2-oxo-oxazolidin-3-yl)-4H-benzo[1,4]thiazin-3-one] was no more than 0.031 mg/L. `COc1ccc2ccc(=O)n(CC3(O)CCN(CC[C@@H]4CN(c5ccc6c(c5)NC(=O)CS6)C(=O)O4)C3)c2c1` (mixture of isomers) [Example 21, 6-((R)-5-{2-[(RS)-3-hydroxy-3-(7-methoxy-2-oxo-2H-quinolin-1-ylmethyl)-pyrrolidin-1-yl]-ethyl}-2-oxo-oxazolidin-3-yl)-4H-benzo[1,4]thiazin-3-one] gave a minimal inhibitory concentration (MIC) of no more than 0.031 mg/L. For `COc1ccc2ccc(=O)n(CC3(O)CN(C[C@@H]4CN(c5ccc6c(c5)NC(=O)CS6)C(=O)O4)C3)c2c1` [Example 1, 6-{(R)-5-[3-hydroxy-3-(7-methoxy-2-oxo-2H-quinolin-1-ylmethyl)azetidin-1-ylmethyl]-2-oxo-oxazolidin-3-yl}-4H-benzo[1,4]thiazin-3-one] the value was no more than 0.031 mg/L. The value for `COc1ccc2ccc(=O)n(CC3CN(C[C@@H]4CN(c5ccc6c(c5)NC(=O)CS6)C(=O)O4)C3)c2c1` [Example 2, 6-{(R)-5-[3-(7-methoxy-2-oxo-2H-quinolin-1-ylmethyl)-azetidin-1-ylmethyl]-2-oxo-oxazolidin-3-yl}-4H-benzo[1,4]thiazin-3-one] was no more than 0.031 mg/L. Regarding `COc1ccc2ccc(=O)n(CC3CN(C[C@@H]4CN(c5ccc6c(c5)OCCO6)C(=O)O4)C3)c2c1` [Example 3, 1-{1-[(R)-3-(2,3-dihydro-benzo[1,4]dioxin-6-yl)-2-oxo-oxazolidin-5-ylmethyl]-azetidin-3-ylmethyl}-7-methoxy-1H-quinolin-2-one], the MIC was determined as 0.063 mg/L (≈ 0.132 µM).

The compound `COc1ccc2ncc(=O)n(CC3CN(C[C@@H]4CN(c5ccc6c(c5)NC(=O)CS6)C(=O)O4)C3)c2c1` [Example 4, 6-{(R)-5-[3-(7-methoxy-2-oxo-2H-quinoxalin-1-ylmethyl)-azetidin-1-ylmethyl]-2-oxo-oxazolidin-3-yl}-4H-benzo[1,4]thiazin-3-one] showed an MIC of no more than 0.031 mg/L. `COc1ccc2ccc(=O)n(CC3CN(CC[C@@H]4CN(c5ccc6c(c5)NC(=O)CS6)C(=O)O4)C3)c2c1` [Example 5, 6-((R)-5-{2-[3-(7-methoxy-2-oxo-2H-quinolin-1-ylmethyl)-azetidin-1-yl]-ethyl}-2-oxo-oxazolidin-3-yl)-4H-benzo[1,4]thiazin-3-one]: the MIC was no more than 0.031 mg/L.

As to `COc1ccc2ncc(=O)n(CC3CN(CC[C@@H]4CN(c5ccc6c(c5)NC(=O)CS6)C(=O)O4)C3)c2c1` [Example 6, 6-((R)-5-{2-[3-(7-methoxy-2-oxo-2H-quinoxalin-1-ylmethyl)-azetidin-1-yl]-ethyl}-2-oxo-oxazolidin-3-yl)-4H-benzo[1,4]thiazin-3-one], the MIC was no more than 0.031 mg/L. For `COc1ccc2ccc(=O)n(CC3CCN(C[C@@H]4CN(c5ccc6c(c5)NC(=O)CS6)C(=O)O4)CC3)c2c1` [Example 7, 6-{(R)-5-[4-(7-methoxy-2-oxo-2H-quinolin-1-ylmethyl)-piperidin-1-ylmethyl]-2-oxo-oxazolidin-3-yl}-4H-benzo[1,4]thiazin-3-one], the MIC was no more than 0.031 mg/L.

Compound `COc1ccc2ccc(=O)n(CC3CCN(C[C@@H]4CN(c5ccc6c(c5)OCCO6)C(=O)O4)CC3)c2c1` [Example 8, 1-{1-[(R)-3-(2,3-dihydro-benzo[1,4]dioxin-6-yl)-2-oxo-oxazolidin-5-ylmethyl]-piperidin-4-ylmethyl}-7-methoxy-1H-quinolin-2-one] returned an MIC of 1 mg/L (≈ 1.98 µM). For `COc1ccc2ccc(=O)n(CC3CCN(C[C@@H]4CN(c5ccc(C)c(F)c5)C(=O)O4)CC3)c2c1` [Example 9, 1-{1-[(R)-3-(3-fluoro-4-methyl-phenyl)-2-oxo-oxazolidin-5-ylmethyl]-piperidin-4-ylmethyl}-7-methoxy-1H-quinolin-2-one] the value was 1 mg/L (≈ 2.09 µM). `COc1ccc2c(c1)N(CC1CN(C[C@@H]3CN(c4ccc5c(c4)NC(=O)CS5)C(=O)O3)C1)C(=O)CC2` [Example 10, 6-{(R)-5-[3-(7-methoxy-2-oxo-3,4-dihydro-2H-quinolin-1-ylmethyl)azetidin-1-ylmethyl]-2-oxo-oxazolidin-3-yl}-4H-benzo[1,4]thiazin-3-one]: the MIC is no more than 0.031 mg/L. For `COc1ccc2c(c1)N(CC1CN(C[C@H]3CN(c4ccc5c(c4)NC(=O)CS5)C(=O)O3)C1)C(=O)CC2` [Example 11, 6-{(S)-5-[3-(7-methoxy-2-oxo-3,4-dihydro-2H-quinolin-1-ylmethyl)azetidin-1-ylmethyl]-2-oxo-oxazolidin-3-yl}-4H-benzo[1,4]thiazin-3-one] the value was no more than 0.031 mg/L; for `COc1ccc2c(c1)N(CC1CN(C[C@@H]3CN(c4ccc5c(c4)NC(=O)CO5)C(=O)O3)C1)C(=O)CC2` [Example 12, 6-{(R)-5-[3-(7-methoxy-2-oxo-3,4-dihydro-2H-quinolin-1-ylmethyl)azetidin-1-ylmethyl]-2-oxo-oxazolidin-3-yl}-4H-benzo[1,4]oxazin-3-one], 0.5 mg/L (≈ 1.02 µM).

Compound `COc1ccc2ncc(=O)n(CC3CN(C[C@@H]4CN(c5ccc6c(c5)NC(=O)CO6)C(=O)O4)C3)c2c1` [Example 13, 6-{(R)-5-[3-(7-methoxy-2-oxo-2H-quinoxalin-1-ylmethyl)-azetidin-1-ylmethyl]-2-oxo-oxazolidin-3-yl}-4H-benzo[1,4]oxazin-3-one] gave an MIC of no more than 0.031 mg/L.

Regarding `COc1ccc2ncc(=O)n(CC3CN(C[C@@H]4CN(c5ccc6c(c5)OCCO6)C(=O)O4)C3)c2c1` [Example 14, 1-{1-[(R)-3-(2,3-dihydro-benzo[1,4]dioxin-6-yl)-2-oxo-oxazolidin-5-ylmethyl]-azetidin-3-ylmethyl}-7-methoxy-1H-quinoxalin-2-one], 0.25 mg/L (≈ 0.522 µM) was the least that counted as inhibitory (MIC). `COc1ccc2ncc(=O)n(C3CCN(C[C@@H]4CN(c5ccc6c(c5)NC(=O)CS6)C(=O)O4)CC3)c2n1` [Example 15, 6-methoxy-4-[1-{(R)-2-oxo-3-(3-oxo-3,4-dihydro-2H-benzo[1,4]thiazin-6-yl)-oxazolidin-5-ylmethyl]-piperidin-4-yl}-4H-pyrido[2,3-b]pyrazin-3-one]: the minimal inhibitory concentration (MIC) was no more than 0.031 mg/L. In turn, `COc1ccc2ncc(=O)n(C3CCN(C[C@@H]4CN(c5ccc6c(c5)NC(=O)CO6)C(=O)O4)CC3)c2n1` [Example 16, 6-methoxy-4-{1-[(R)-2-oxo-3-(3-oxo-3,4-dihydro-2H-benzo[1,4]oxazin-6-yl)-oxazolidin-5-ylmethyl]-piperidin-4-yl}-4H-pyrido[2,3-b]pyrazin-3-one] registered an MIC of no more than 0.031 mg/L. For `COc1ccc2ccc(=O)n(C[C@@H]3CCN(C[C@@H]4CN(c5ccc6c(c5)NC(=O)CS6)C(=O)O4)C3)c2c1` [Example 17, 6-{(R)-5-[(R)-3-(7-methoxy-2-oxo-2H-quinolin-1-ylmethyl)-pyrrolidin-1-ylmethyl]-2-oxo-oxazolidin-3-yl}-4H-benzo[1,4]thiazin-3-one], the minimal inhibitory concentration (MIC) was no more than 0.031 mg/L. For `COc1ccc2ncc(=O)n(C3CCN(C[C@@H]4CN(c5ccc6c(c5)OCCO6)C(=O)O4)CC3)c2n1` [Example 22, 4-{1-[(R)-3-(2,3-dihydro-benzo[1,4]dioxin-6-yl)-2-oxo-oxazolidin-5-ylmethyl]-piperidin-4-yl}-6-methoxy-4H-pyrido[2,3-b]pyrazin-3-one], the MIC was no more than 0.031 mg/L. On to `COc1ccc2ncc(=O)n(C3CCN(CC[C@H]4CN(c5ccc6c(c5)NC(=O)CS6)C(=O)O4)CC3)c2n1` [Example 23, 6-methoxy-4-(1-{2-[(S)-2-oxo-3-(3-oxo-3,4-dihydro-2H-benzo[1,4]thiazin-6-yl)-oxazolidin-5-yl]-ethyl}-piperidin-4-yl)-4H-pyrido[2,3-b]pyrazin-3-one], for which the MIC is no more than 0.031 mg/L.

As for `COc1ccc2ncc(=O)n(C3CCN(C[C@@H]4CN(c5ccc(C)c(F)c5)C(=O)O4)CC3)c2n1` [Example 24, 4-{1-[(R)-3-(3-fluoro-4-methyl-phenyl)-2-oxo-oxazolidin-5-ylmethyl]-piperidin-4-yl}-6-methoxy-4H-pyrido[2,3-b]pyrazin-3-one], the MIC is no more than 0.031 mg/L.

`COc1ccc2ncc(=O)n(C3CCN(CC[C@@H]4CN(c5ccc6c(c5)NC(=O)CS6)C(=O)O4)CC3)c2n1` [Example 25, 6-methoxy-4-(1-{2-[(R)-2-oxo-3-(3-oxo-3,4-dihydro-2H-benzo[1,4]thiazin-6-yl)-oxazolidin-5-yl]-ethyl}-piperidin-4-yl)-4H-pyrido[2,3-b]pyrazin-3-one] displayed a minimum inhibitory concentration (MIC) of no more than 0.031 mg/L.

Values taken from patent US8507478B2, “Oxazolidinyl antibiotics” (Actelion Pharmaceuticals Ltd., priority 2008, dated 2013).
